57 compounds from patent US20130345199A1, “1-[M-CARBOXAMIDO(HETERO)ARYL-METHYL]-PIPERIDINE-4-CARBOXAMIDE DERIVATIVES” (Actelion Pharmaceuticals Ltd., priority 2012, published 2013) can be followed below.

Usually EC50 stands for the concentration at which the effect is half-maximal. A low value points to a more potent agent.

T1 sequence (P25106 whole entry): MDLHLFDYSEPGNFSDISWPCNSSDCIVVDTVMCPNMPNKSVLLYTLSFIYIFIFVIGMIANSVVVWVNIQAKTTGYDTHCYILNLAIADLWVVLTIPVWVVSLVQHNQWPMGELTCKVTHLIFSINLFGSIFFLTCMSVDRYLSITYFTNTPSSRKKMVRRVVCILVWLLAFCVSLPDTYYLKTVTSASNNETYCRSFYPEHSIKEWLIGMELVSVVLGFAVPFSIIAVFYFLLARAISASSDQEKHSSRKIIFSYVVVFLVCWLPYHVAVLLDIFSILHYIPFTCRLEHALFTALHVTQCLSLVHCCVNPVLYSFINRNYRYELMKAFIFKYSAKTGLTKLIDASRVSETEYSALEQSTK

This assay concerns the target T1, CXCR7 (Homo sapiens, UniProt P25106).
T1 construct: host or cells: CHO-K1 (PathHunter CXCR7 b-arrestin cell line, stably transfected)
The experiment in a line: PathHunter CHO-K1 CXCR7 b-arrestin assay (agonistic activity). The assay is classed as cell-based. The settings on record: PathHunter CHO-K1 CXCR7 b-arrestin cell line, 90 minutes at 37° C. As for the experimental part: The […] receptor and CXCR7 agonistic activities of the compounds of formula (I) are determined in accordance with the following experimental method.
The assay is using the PathHunter™ CHO-K1 CXCR7 b-arrestin cell line from DiscoverX. The system is based on the Enzyme Fragment Complementation Technology. Two complementing fragments of the b-galactosidase enzyme are expressed within stably transfected cells. The larger portion of b-gal, termed EA for Enzyme Acceptor, is fused to the C-terminus of b-arrestin 2. The smaller fragment, termed ProLink™ tag, is fused to CXCR7 at the C-terminus. Upon activation, b-arrestin is recruited which forces the interaction of ProLink and EA, allowing complementation of the two fragments of b-gal and the formation of a functional enzyme which is capable of hydrolysing the substrate and generating a chemiluminescent signal.
CHO-K1 CXCR7 b-arrestin cells are detached from culture dishes with a cell dissociation buffer (Invitrogen, #13151-014) and collected in growing medium (F12HAMS 90% (v/v)/FCS 10% (v/v), Penicilin/streptomycin 1% (v/v)). 5000 cells per well (in 20 μl) are seeded in a 384 well plate (white-walled, clear bottom; BD Falcon #353274). The plate is incubated at 37° C./5% CO2 for 24 hours. Medium is then replaced by […] (Invitrogen #31985) for 3 to 4 hours. Test compounds are dissolved at 10 mM in DMSO and serially diluted in DMSO to 200× of the final concentration for dose response curves. Compounds are then diluted 1:33.3 in HBSS1X. 5 μl/well of HBSS1X/20 mM HEPES/0.2% BSA are added to the assay plate followed by addition of 5 μl/well of diluted compounds. CXCL12 (Peprotech #300-28A) may be used as a reference agonist. The plate is incubated for 90 minutes at 37° C. 12 μl of detection reagent (Path Hunter Detection Kit, DiscoveRx, #93-0001) is transferred to the assay plate and to the plate is incubated for 1 hour at room temperature. Luminescent signal is read in a microplate reader (FLUOstar Optima, bmg). The calculated EC50 values may fluctuate depending on the daily cellular assay performance. Fluctuations of this kind are known to those skilled in the art.
In the case of `COc1ccc(CNC(=O)C2CCN(Cc3cccc(NC(=O)c4ccc(Cl)cc4)c3)CC2)cc1` [Example 2.030], the EC50 stood at 832 nM.
For `O=C(Nc1cccc(CN2CCC(C(=O)NCC(F)(F)F)CC2)c1)c1ccc(Cl)cc1` [Example 2.031] the value was 3 nM.
The value for `O=C(Nc1cccc(CN2CCC(C(=O)NC3(CO)CCCC3)CC2)c1)c1ccc(Cl)cc1` [Example 2.032] was 5 nM; that for `O=C(Nc1cccc(CN2CCC(C(=O)NC3Cc4ccccc4C3)CC2)c1)c1ccc(Cl)cc1` [Example 2.033] was 9 nM.
For `Cc1cc(CNC(=O)C2CCN(Cc3cccc(NC(=O)c4ccc(Cl)cc4)c3)CC2)c(C(F)(F)F)o1` [Example 2.034] the value was 533 nM; for `O=C(Nc1cccc(CN2CCC(C(=O)NCc3ccccc3)CC2)c1)c1ccc(Cl)cc1` [Example 2.035], 45 nM.
Regarding `Cc1cncc(C(=O)Nc2cccc(CN3CCC(C(=O)NC4CC4)CC3)c2)c1` [Example 2.037], the EC50 was 82 nM.
Regarding `Cc1cncc(C(=O)Nc2cccc(CN3CCC(C(=O)NC(C)C)CC3)c2)c1` [Example 2.038], the concentration giving a half-maximal response (EC50) is 12 nM. This EC50 lies about 6.8-fold lower than the previous one.
The value for `Cc1cncc(C(=O)Nc2cccc(CN3CCC(C(=O)NC(C)(C)C)CC3)c2)c1` [Example 2.039] was 3 nM.
The value for `CCC(CC)NC(=O)C1CCN(Cc2cccc(NC(=O)c3cncc(C)c3)c2)CC1` [Example 2.040] was 8 nM; that for `Cc1cncc(C(=O)Nc2cccc(CN3CCC(C(=O)NC4CCC4)CC3)c2)c1` [Example 2.041] was 13 nM.
The value for `Cc1cncc(C(=O)Nc2cccc(CN3CCC(C(=O)NC4CCCC4)CC3)c2)c1` [Example 2.042] was 5 nM; that for `Cc1cncc(C(=O)Nc2cccc(CN3CCC(C(=O)NCC4CC4)CC3)c2)c1` [Example 2.043] was 20 nM; that for `Cc1cncc(C(=O)Nc2cccc(CN3CCC(C(=O)NC4CCC(F)(F)CC4)CC3)c2)c1` [Example 2.044] was 27 nM.
With `Cc1cncc(C(=O)Nc2cccc(CN3CCC(C(=O)NC4(C#N)CC4)CC3)c2)c1` [Example 2.045], the half-maximal effective concentration (EC50) stood at 402 nM.
The value for `Cc1cncc(C(=O)Nc2cccc(CN3CCC(C(=O)N4CCCCC4)CC3)c2)c1` [Example 2.046] was 6 nM; that for `Cc1cncc(C(=O)Nc2cccc(CN3CCC(C(=O)N4CCCC4)CC3)c2)c1` [Example 2.047] was 67 nM; that for `Cc1cncc(C(=O)Nc2cccc(CN3CCC(C(=O)N4CCCCCC4)CC3)c2)c1` [Example 2.048] was 19 nM.
The value for `Cc1cncc(C(=O)Nc2cccc(CN3CCC(C(=O)N4CCC(F)(F)CC4)CC3)c2)c1` [Example 2.049] was 300 nM.
The value for `Cc1cncc(C(=O)Nc2cccc(CN3CCC(C(=O)N4C(C)CCC4C)CC3)c2)c1` (stereo not drawn) [Example 2.051] was 96 nM; that for `Cc1cncc(C(=O)Nc2cccc(CN3CCC(C(=O)N4CC[C@@H](F)C4)CC3)c2)c1` [Example 2.052] was 121 nM.
`Cc1cncc(C(=O)Nc2cccc(CN3CCC(C(=O)N4CC[C@H](F)C4)CC3)c2)c1` [Example 2.053] had a 50% effective concentration (EC50) of 195 nM.
For `Cc1cncc(C(=O)Nc2cccc(CN3CCC(C(=O)N4CCC(F)(F)C4)CC3)c2)c1` [Example 2.054] the value was 109 nM; for `Cc1cncc(C(=O)Nc2cccc(CN3CCC(C(=O)N(C)C)CC3)c2)c1` [Example 2.055], 60 nM.
The value for `CCCN(C)C(=O)C1CCN(Cc2cccc(NC(=O)c3cncc(C)c3)c2)CC1` [Example 2.056] was 6 nM; that for `Cc1cncc(C(=O)Nc2cccc(CN3CCC(C(=O)N(C)CC(C)C)CC3)c2)c1` [Example 2.057] was 8 nM.
Consider `COCCN(C)C(=O)C1CCN(Cc2cccc(NC(=O)c3cncc(C)c3)c2)CC1` [Example 2.058], for which the EC50 came to 224 nM.
For `CCC(C)(C)NC(=O)C1CCN(Cc2cccc(NC(=O)c3cncc(C)c3)c2)CC1` [Example 2.059] the value was 3 nM; for `Cc1cncc(C(=O)Nc2cccc(CN3CCC(C(=O)N4CCCC4(C)C)CC3)c2)c1` [Example 2.060], 10 nM; for `Cc1cncc(C(=O)Nc2cccc(CN3CCC(C(=O)N4CCC(C)(C)C4)CC3)c2)c1` [Example 2.061], 64 nM.
The value for `Cc1cncc(C(=O)Nc2cccc(CN3CCC(C(=O)NC4CCCC4)C3)c2)c1` (stereo not drawn) [Example 2.062] was 28 nM.
The value for `Cc1cncc(C(=O)Nc2cccc(CN3CCC(C(=O)NC4CCCCC4)C3)c2)c1` (stereo not drawn) [Example 2.063] was 92 nM; that for `CCC(CO)NC(=O)C1CCN(Cc2cccc(NC(=O)c3cccc(C(F)(F)F)n3)c2)CC1` (stereo not drawn) [Example 2.065] was 26 nM.
In turn, `O=C(Nc1cccc(CN2CCC(C(=O)N[C@H](CO)C3CCCCC3)CC2)c1)c1cccc(C(F)(F)F)n1` [Example 2.066] registered an EC50 of 431 nM. Against the preceding compound, the EC50 is about 17-fold higher.
For `CC(C)(C)[C@@H](CO)NC(=O)C1CCN(Cc2cccc(NC(=O)c3cccc(C(F)(F)F)n3)c2)CC1` [Example 2.067] the value was 406 nM; for `CNC(=O)C1CCN(Cc2cccc(NC(=O)c3cccc(C(F)(F)F)n3)c2)CC1` [Example 2.068], 4 nM; for `CCNC(=O)C1CCN(Cc2cccc(NC(=O)c3cccc(C(F)(F)F)n3)c2)CC1` [Example 2.069], 4 nM.
For `CC(C)(C)CNC(=O)C1CCN(Cc2cccc(NC(=O)c3cccc(C(F)(F)F)n3)c2)CC1` [Example 2.070] the value was 6 nM; for `CC(C)CNC(=O)C1CCN(Cc2cccc(NC(=O)c3cccc(C(F)(F)F)n3)c2)CC1` [Example 2.071], 2 nM; for `CNC(=O)C1CCN(Cc2cccc(NC(=O)c3cccs3)c2)CC1` [Example 2.072], 188 nM.
In turn, `CN(C)C(=O)C1CCN(Cc2cccc(NC(=O)c3cccs3)c2)CC1` [Example 2.073] showed an EC50 of 155 nM.
For `CCN(CC)C(=O)C1CCN(Cc2cccc(NC(=O)c3cccs3)c2)CC1` [Example 2.074], a half-maximal response (EC50) required 70 nM.
In the case of `O=C(Nc1cccc(CN2CCC(C(=O)NC3CCCCC3)CC2)c1)c1cccs1` [Example 2.075], the response was half-maximal at 7 nM (EC50).
The value for `O=C(Nc1cccc(CN2CCC(C(=O)NCc3ccccc3)CC2)c1)c1cccs1` [Example 2.076] was 780 nM; that for `CN(C(=O)C1CCN(Cc2cccc(NC(=O)c3cccs3)c2)CC1)C1CCCCC1` [Example 2.077] was 87 nM; that for `CCCCCCNC(=O)C1CCN(Cc2cccc(NC(=O)c3cccc(C(F)(F)F)n3)c2)CC1` [Example 2.078] was 257 nM.
Compound `CCCCCCN(C)C(=O)C1CCN(Cc2cccc(NC(=O)c3cccc(C(F)(F)F)n3)c2)CC1` [Example 2.079] gave a 50% effective concentration (EC50) of 226 nM. This EC50 and that of the compound before are within 1.5-fold of each other.
The value for `CC(C)CCNC(=O)C1CCN(Cc2cccc(NC(=O)c3cccc(C(F)(F)F)n3)c2)CC1` [Example 2.081] was 5 nM; that for `CC(C)(C)CCNC(=O)C1CCN(Cc2cccc(NC(=O)c3cccc(C(F)(F)F)n3)c2)CC1` [Example 2.082] was 121 nM; that for `CC1CCC(NC(=O)C2CCN(Cc3cccc(NC(=O)c4cccc(C(F)(F)F)n4)c3)CC2)CC1` (stereo not drawn) [Example 2.083] was 3 nM.
For `CC(C)(CO)NC(=O)C1CCN(Cc2cccc(NC(=O)c3cccc(C(F)(F)F)n3)c2)CC1` [Example 2.091] the value was 6 nM; for `COCC(C)NC(=O)C1CCN(Cc2cccc(NC(=O)c3cccc(C(F)(F)F)n3)c2)CC1` (stereo not drawn) [Example 2.092], 3 nM; for `COC(C)CNC(=O)C1CCN(Cc2cccc(NC(=O)c3cccc(C(F)(F)F)n3)c2)CC1` (stereo not drawn) [Example 2.093], 6 nM.
Consider `CCCNC(=O)C1CCN(Cc2cccc(NC(=O)c3cccc(C(F)(F)F)n3)c2)CC1` [Example 2.094], for which the EC50 came to 1 nM. This EC50 lies about 6-fold lower than the previous one.
The value for `CCCCNC(=O)C1CCN(Cc2cccc(NC(=O)c3cccc(C(F)(F)F)n3)c2)CC1` [Example 2.095] was 2 nM.
The value for `O=C(Nc1cc(CN2CCC(C(=O)NC3CCCCC3)CC2)ccn1)c1ccc(F)cc1` [Example 3.001, 1-[2-(4-Fluoro-benzoylamino)-pyridin-4-ylmethyl]-piperidine-4-carboxylic acid cyclohexylamide] was 24 nM; that for `O=C(Nc1cc(CN2CCC(C(=O)NC3CCCCC3)CC2)ccn1)c1ccc(Cl)cc1` [Example 3.002, 1-[2-(4-Chloro-benzoylamino)-pyridin-4-ylmethyl]-piperidine-4-carboxylic acid cyclohexylamide] was 57 nM.
